Patent publication US9656988B2 (Pharmacyclics LLC, priority 2013, dated 2017)
Like-named read-outs stand apart in the source and are kept apart here.

Molecular target: BTK (Homo sapiens (Human), UniProt Q06187)
Assay: Btk in vitro inhibitory activity (one of Method A TR-FRET, Method B electrophoretic mobility shift, Method C radiometric filter binding)
Type: biochemical
[1] = determined using one of the methods of Example 355a, 355b and 355c, read-out: BTK IC50

BTK, sequence (Q06187 whole entry): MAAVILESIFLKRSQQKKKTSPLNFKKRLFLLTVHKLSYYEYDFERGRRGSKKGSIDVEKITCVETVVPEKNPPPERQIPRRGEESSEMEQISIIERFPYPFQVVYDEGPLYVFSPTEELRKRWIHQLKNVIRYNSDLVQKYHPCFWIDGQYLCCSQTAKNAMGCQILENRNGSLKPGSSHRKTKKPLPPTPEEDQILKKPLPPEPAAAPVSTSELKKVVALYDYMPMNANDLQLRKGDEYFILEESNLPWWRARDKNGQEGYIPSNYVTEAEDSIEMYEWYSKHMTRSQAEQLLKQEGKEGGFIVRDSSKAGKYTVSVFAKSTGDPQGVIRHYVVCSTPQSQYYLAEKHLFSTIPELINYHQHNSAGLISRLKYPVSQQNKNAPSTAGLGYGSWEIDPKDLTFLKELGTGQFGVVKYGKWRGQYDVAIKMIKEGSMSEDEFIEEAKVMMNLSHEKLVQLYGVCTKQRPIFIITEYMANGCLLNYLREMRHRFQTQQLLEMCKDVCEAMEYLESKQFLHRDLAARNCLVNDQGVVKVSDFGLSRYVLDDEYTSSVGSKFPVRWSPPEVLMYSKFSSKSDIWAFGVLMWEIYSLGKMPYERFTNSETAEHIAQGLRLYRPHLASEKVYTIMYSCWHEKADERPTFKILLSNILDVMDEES

Structure (SMILES) | IC50 (Btk (IC50)) [µM] | IC50 [1] [µM] | IC50 (read-out: Btk (IC50)) [µM] | IC50 [µM]
C[C@@H]1[C@H](N2CCCN(C)C2=O)CCCN1c1cnc(C(N)=O)c(Nc2ccc(C3CCN(C4CCCC4)CC3)cc2)n1 [Example 281, 3-(4-(1-cyclopentylpiperidin-4-yl)phenylamino)-5-((2R,3R)-2-methyl-3-(3-methyl-2-oxotetrahydropyrimidin-1(2H)-yl)piperidin-1-yl)pyrazine-2-carboxamide] | < 0.01 | < 0.01 |  | 
CN1CCCN([C@@H]2CCCN(c3cnc(C(N)=O)c(Nc4ccc(C5CCN(C6CCCC6)CC5)cc4)n3)C2)C1=O [Example 282, (R)-3-(4-(1-cyclopentylpiperidin-4-yl)phenylamino)-5-(3-(3-methyl-2-oxotetrahydropyrimidin-1(2H)-yl)piperidin-1-yl)pyrazine-2-carboxamide] |  | < 0.01 | < 0.01 | 
CN1CCCN([C@@H]2CCCN(c3cnc(C(N)=O)c(Nc4ccc(C5(C)CCN(C6CCCC6)CC5)cc4)n3)C2)C1=O [Example 283, (R)-3-(4-(1-cyclopentyl-4-methylpiperidin-4-yl)phenylamino)-5-(3-(3-methyl-2-oxotetrahydropyrimidin-1(2H)-yl)piperidin-1-yl)pyrazine-2-carboxamide] |  | < 0.01 | < 0.01 | 
CN1CCCN([C@@H]2CCCN(c3cnc(C(N)=O)c(Nc4ccc(C5CCN(C6CC6)CC5)cc4)n3)C2)C1=O [Example 284, (R)-3-(4-(1-cyclopropylpiperidin-4-yl)phenylamino)-5-(3-(3-methyl-2-oxotetrahydropyrimidin-1(2H)-yl)piperidin-1-yl)pyrazine-2-carboxamide] |  | < 0.01 | < 0.01 | 
CN1CCCN([C@@H]2CCCN(c3cnc(C(N)=O)c(Nc4ccc(C5(C)CCN(C6CC6)CC5)cc4)n3)C2)C1=O [Example 285, (R)-3-(4-(1-cyclopropyl-4-methylpiperidin-4-yl)phenylamino)-5-(3-(3-methyl-2-oxotetrahydropyrimidin-1(2H)-yl)piperidin-1-yl)pyrazine-2-carboxamide] |  | < 0.01 | < 0.01 | 
NC(=O)c1ncc(N2CCC[C@H]3NCC[C@H]32)nc1Nc1ccc(C2CCN(C3CCCC3)CC2)cc1 [Example 286, 3-(4-(1-cyclopentylpiperidin-4-yl)phenylamino)-5-((3aR,7aR)-dihydro-1H-pyrrolo[3,2-b]pyridin-4(2H,5H,6H,7H,7aH)-yl)pyrazine-2-carboxamide] |  | 0.01 to 0.1 | 0.01 to 0.1 | 
CN(C)C(=O)N1CCC[C@@H]2[C@H]1CCCN2c1cnc(C(N)=O)c(Nc2ccc(C3CCN(C4CCCC4)CC3)cc2)n1 [Example 289, (4aR,8aR)-5-(5-carbamoyl-6-(4-(1-cyclopentylpiperidin-4-yl)phenylamino)pyrazin-2-yl)-N,N-dimethyloctahydro-1,5-naphthyridine-1(2H)-carboxamide] |  | 0.01 to 0.1 |  | 
C[C@@H]1CCN(c2cnc(C(N)=O)c(Nc3ccc(C4CCN(C5CCCC5)CC4)cc3)n2)C[C@@H]1NC(=O)N(C)C [Example 290, 3-(4-(1-cyclopentylpiperidin-4-yl)phenylamino)-5-((3R,4R)-3-(3,3-dimethylureido)-4-methylpiperidin-1-yl)pyrazine-2-carboxamide] |  | 0.01 to 0.1 |  | 
NC(=O)c1ncc(N2CCC[C@@H](NC=O)C2)nc1Nc1ccc(C2CCN(C3CCCC3)CC2)cc1 [Example 295, (R)-3-(4-(1-cyclopentylpiperidin-4-yl)phenylamino)-5-(3-formamidopiperidin-1-yl)pyrazine-2-carboxamide] |  | < 0.01 | < 0.01 | 
CCC(=O)N[C@@H]1CCCN(c2cnc(C(N)=O)c(Nc3ccc(C4CCN(C5CCCC5)CC4)cc3)n2)C1 [Example 296, (R)-3-(4-(1-cyclopentylpiperidin-4-yl)phenylamino)-5-(3-propionamidopiperidin-1-yl)pyrazine-2-carboxamide] |  | < 0.01 | < 0.01 | 
CCN(C)C(=O)N[C@@H]1CCCN(c2cnc(C(N)=O)c(Nc3ccc(C4CCN(C5CCCC5)CC4)cc3)n2)C1 [Example 297, (R)-3-(4-(1-cyclopentylpiperidin-4-yl)phenylamino)-5-(3-(3-ethyl-3-methylureido)piperidin-1-yl)pyrazine-2-carboxamide] |  | < 0.01 | < 0.01 | 
CCOC(=O)N[C@@H]1CCCN(c2cnc(C(N)=O)c(Nc3ccc(C4CCN(C5CCCC5)CC4)cc3)n2)C1 [Example 298, (R)-ethyl 1-(5-carbamoyl-6-(4-(1-cyclopentylpiperidin-4-yl)phenylamino)pyrazin-2-yl)piperidin-3-ylcarbamate] |  | < 0.01 | < 0.01 | 
NC(=O)c1ncc(N2CCC[C@@H](NC(=O)C3CC3)C2)nc1Nc1ccc(C2CCN(C3CCCC3)CC2)cc1 [Example 299, (R)-3-(4-(1-cyclopentylpiperidin-4-yl)phenylamino)-5-(3-(cyclopropanecarboxamido)piperidin-1-yl)pyrazine-2-carboxamide] |  | < 0.01 | < 0.01 | 
CS(=O)(=O)N[C@@H]1CCCN(c2cnc(C(N)=O)c(Nc3ccc(C4CCN(C5CCCC5)CC4)cc3)n2)C1 [Example 300, (R)-3-(4-(1-cyclopentylpiperidin-4-yl)phenylamino)-5-(3-(methylsulfonamido)piperidin-1-yl)pyrazine-2-carboxamide] | 0.01 to 0.1 | 0.01 to 0.1 |  | 
CCS(=O)(=O)N[C@@H]1CCCN(c2cnc(C(N)=O)c(Nc3ccc(C4CCN(C5CCCC5)CC4)cc3)n2)C1 [Example 301, (R)-3-(4-(1-cyclopentylpiperidin-4-yl)phenylamino)-5-(3-(ethylsulfonamido)piperidin-1-yl)pyrazine-2-carboxamide] |  | 0.01 to 0.1 |  | 
CN(C)S(=O)(=O)N[C@@H]1CCCN(c2cnc(C(N)=O)c(Nc3ccc(C4CCN(C5CCCC5)CC4)cc3)n2)C1 [Example 302, (R)-3-(4-(1-cyclopentylpiperidin-4-yl)phenylamino)-5-(3-(N,N-dimethylsulfamoylamino)piperidin-1-yl)pyrazine-2-carboxamide] |  | 0.01 to 0.1 |  | 
NC(=O)c1ncc(N2CCC[C@@H](NC(=O)c3ccccc3)C2)nc1Nc1ccc(C2CCN(C3CCCC3)CC2)cc1 [Example 303, (R)-5-(3-benzamidopiperidin-1-yl)-3-(4-(1-cyclopentylpiperidin-4-yl)phenylamino)pyrazine-2-carboxamide] |  | < 0.01 | < 0.01 | 
NC(=O)c1ncc(N2CCC[C@@H](NC(=O)c3cccnc3)C2)nc1Nc1ccc(C2CCN(C3CCCC3)CC2)cc1 [Example 304, (R)-3-(4-(1-cyclopentylpiperidin-4-yl)phenylamino)-5-(3-(nicotinamido)piperidin-1-yl)pyrazine-2-carboxamide] |  | < 0.01 | < 0.01 | 
NC(=O)c1ncc(N2CCC[C@@H](NC(=O)c3cncc(F)c3)C2)nc1Nc1ccc(C2CCN(C3CCCC3)CC2)cc1 [Example 305, (R)-3-(4-(1-cyclopentylpiperidin-4-yl)phenylamino)-5-(3-(5-fluoronicotinamido)piperidin-1-yl)pyrazine-2-carboxamide] |  | < 0.01 | < 0.01 | 
NC(=O)c1ncc(N2CCC[C@@H](N3Cc4ccccc4C3=O)C2)nc1Nc1ccc(C2CCN(C3CCCC3)CC2)cc1 [Example 307, (R)-3-(4-(1-cyclopentylpiperidin-4-yl)phenylamino)-5-(3-(1-oxoisoindolin-2-yl)piperidin-1-yl)pyrazine-2-carboxamide] |  | < 0.01 | < 0.01 | 
NC(=O)c1ncc(N2CCC[C@@H](NC(=O)C3CC4(CCC4)C3)C2)nc1Nc1ccc(C2CCN(C3CC3)CC2)cc1 [Example 309, 3-(4-(1-cyclopropylpiperidin-4-yl)phenylamino)-5-((3R)-3-(spiro[3.3]heptane-2-carboxamido)piperidin-1-yl)pyrazine-2-carboxamide] |  | 0.1 to 1 | 0.1 to 1 | 
NC(=O)c1ncc(N2CCC[C@@H](NC(=O)C3CCCC3)C2)nc1Nc1ccc(C2CCN(C3CC3)CC2)cc1 [Example 310, (R)-5-(3-(cyclopentanecarboxamido)piperidin-1-yl)-3-(4-(1-cyclopropylpiperidin-4-yl)phenylamino)pyrazine-2-carboxamide] |  | 0.01 to 0.1 | 0.01 to 0.1 | 
NC(=O)c1ncc(N2CCC[C@@H](NC(=O)c3ccc(Cl)cc3)C2)nc1Nc1ccc(C2CCN(C3CC3)CC2)cc1 [Example 311, (R)-5-(3-(4-chlorobenzamido)piperidin-1-yl)-3-(4-(1-cyclopropylpiperidin-4-yl)phenylamino)pyrazine-2-carboxamide] |  | < 0.01 | < 0.01 | 
NC(=O)c1ncc(N2CCC[C@@H](NC(=O)c3cccc(Cl)c3)C2)nc1Nc1ccc(C2CCN(C3CC3)CC2)cc1 [Example 312, (R)-5-(3-(3-chlorobenzamido)piperidin-1-yl)-3-(4-(1-cyclopropylpiperidin-4-yl)phenylamino)pyrazine-2-carboxamide] |  | < 0.01 | < 0.01 | 
NC(=O)c1ncc(N2CCC[C@@H](NC(=O)c3cncc(Cl)c3)C2)nc1Nc1ccc(C2CCN(C3CC3)CC2)cc1 [Example 313, (R)-5-(3-(5-chloronicotinamido)piperidin-1-yl)-3-(4-(1-cyclopropylpiperidin-4-yl)phenylamino)pyrazine-2-carboxamide] |  | < 0.01 | < 0.01 | 
NC(=O)c1ncc(N2CCC[C@@H](NC(=O)c3ccc(Cl)s3)C2)nc1Nc1ccc(C2CCN(C3CC3)CC2)cc1 [Example 314, (R)-5-(3-(5-chlorothiophene-2-carboxamido)piperidin-1-yl)-3-(4-(1-cyclopropylpiperidin-4-yl)phenylamino)pyrazine-2-carboxamide] |  | 0.01 to 0.1 |  | 
NC(=O)c1ncc(N2CCC[C@@H](NC(=O)c3cc4ccccc4s3)C2)nc1Nc1ccc(C2CCN(C3CC3)CC2)cc1 [Example 315, (R)-5-(3-(benzo[b]thiophene-2-carboxamido)piperidin-1-yl)-3-(4-(1-cyclopropylpiperidin-4-yl)phenylamino)pyrazine-2-carboxamide] |  | 0.01 to 0.1 |  | 0.01 to 0.1
NC(=O)c1ncc(N2CCC[C@@H](NC(=O)c3cc4c(s3)CCCC4)C2)nc1Nc1ccc(C2CCN(C3CC3)CC2)cc1 [Example 316, (R)-3-(4-(1-cyclopropylpiperidin-4-yl)phenylamino)-5-(3-(4,5,6,7-tetrahydrobenzo[b]thiophene-2-carboxamido)piperidin-1-yl)pyrazine-2-carboxamide] |  | < 0.01 |  | 
